Data reported in patent US20080125496A1, “ANTIMICROBIAL FLAVOR AND ORAL CARE COMPOSITION CONTAINING THE SAME” (TAKASAGO INTERNATIONAL CORPORATION, priority 2001, published 2008).
≈ marks a conversion by molar mass, not a printed value.

Legend:
Type in all cases: cell-based
[1] = test system: Porphyromonas gingivalis JCM 8525; assay: MIC by agar plate dilution method, Pg-1; conditions: agar medium, 37° C., 72 hours, anaerobic conditions; for MIC: Porphyromonas gingivalis, JCM8525, read-out: MIC Pg-1 (paradentosis-related bacteria; head Fg-1 in Tables 2 and 3)
Experimental: (§1) The minimum inhibitory activities of the antimicrobial flavors of the invention on anaerobic oral bacteria were measured by an agar plate dilution method.
(§2) All the test strains were obtained from Riken (The Institute of Physical and Chemical Research). The names and abbreviations of the strains are shown in Table 1 below (The abbreviations are used in the following description).
(§3) Each test microorganism kept frozen (−80° C.) in glycerol at a concentration of 25% was thawed. A 100 μl portion of the suspension was inoculated into 10 ml of a liquid medium. A Gifu university anaerobic medium (GAM) (Nissui Pharmaceutical Co., Ltd) having added thereto Hemin (Tokyo Kasei) and Menadione (Sigma) was used for Su-1 and Fn-1. Schaedler Broth (BBL) having added thereto Hemin and Menadione was used for the other strains. The culture was anaerobically incubated at 37° C. for 72 hours by using BBL Gas Pack Anaerobic System. After the cultivation, the microbial cell suspension of Su-1 was 10-fold diluted to prepare an inoculum. The cultures of Fn-1 and Pg-1 were used as such as an inoculum. The cultures of Pt-1, Aa-1, and Av-1 were subjected to centrifugation, and the separated microbial cells were suspended in 2 ml of sterilized physiological saline to prepare the respective inoculums.
(§4) An agar medium prepared by adding 2% agar (Difco), Hemin, and Menadione to Trypticase Soy Broth (BBL) was used. A test sample (antimicrobial flavor) was dissolved in ethanol to prepare 2-fold serial dilutions. To 10 ml of the agar medium was added 100 μl of each dilution and stirred well. The agar medium was transferred to a petri dish (diameter: 9 cm) and solidified at room temperature. The solidified agar medium was inoculated with 5 μl of the inoculum by means of a multipoint inoculator (Microplanter MIT-P27, supplied by Sakuma Seisakusho), followed by culturing at 37° C. for 72 hours under anaerobic conditions. The growth of the test microorganism was compared with a blank petri dish (the agar medium to which 100 μl of ethanol had been added). The lowest sample concentration that inhibited growth was taken as MIC (ppm).
(§5) Antimicrobial activities (MIC; ppm) of the aromahygiene base (AHB) prepared in (1) and the antimicrobial flavor compositions prepared in (2) (Examples 2-1 to 2-3) and Comparative Examples 2-1 to 2-3 were measured in the same manner as in Example 1 (2).

[2] = test system: Actinomyces viscosus JCM 8352; assay: MIC by agar plate dilution method, Av-1; conditions: agar medium, 37° C., 72 hours, anaerobic conditions; for MIC: Actinomyces viscosus, JCM8352, read-out: MIC Av-1 (caries-related bacteria)
Experimental: as §1, §2, §3, §4, §5

[3] = test system: Streptococcus mutans JCM 5175; assay: MIC by agar plate dilution method, Su-1; conditions: agar medium, 37° C., 72 hours, anaerobic conditions; for MIC: Streptococcus mutans, JCM5175, read-out: MIC Su-1 (caries-related bacteria)
Experimental: as §1, §2, §3, §4, §5

[4] = test system: Fusobacterium nucleatum JCM 6328; assay: MIC by agar plate dilution method, Fn-1; conditions: agar medium, 37° C., 72 hours, anaerobic conditions; for MIC: Fusobacterium nucleatum, JCM6328, read-out: MIC Fn-1 (paradentosis-related bacteria)
Experimental: as §1, §2, §3, §4, §5

[5] = test system: Actinomyces naeslundii JCM 8350; assay: MIC by agar plate dilution method, Aa-1; conditions: agar medium, 37° C., 72 hours, anaerobic conditions; for MIC: Actinomyces naeslundii, JCM8350, read-out: MIC Aa-1 (caries-related bacteria)
Experimental: as §1, §2, §3, §4, §5

[6] = test system: Prevotella intermedia JCM 6322; assay: MIC by agar plate dilution method, Pt-1; conditions: agar medium, 37° C., 72 hours, anaerobic conditions; for MIC: Prevotella intermedia, JCM6322, read-out: MIC Pt-1 (paradentosis-related bacteria)
Experimental: as §1, §2, §3, §4, §5

SMILES | MIC [1] [µg/mL] | MIC [2] [µg/mL] | MIC [3] [µg/mL] | MIC [4] [µg/mL] | MIC [5] [µg/mL] | MIC [6] [µg/mL] | MIC Pg-1 (paradentosis-related bacteria; head Fg-1 in Tables 2 and 3) [1] [ppm] | MIC Av-1 (caries-related bacteria) [2] [ppm] | MIC Su-1 (caries-related bacteria) [3] [ppm] | MIC Fn-1 (paradentosis-related bacteria) [4] [ppm] | MIC Aa-1 (caries-related bacteria) [5] [ppm] | MIC Pt-1 (paradentosis-related bacteria) [6] [ppm]
CCCCCCCCCO [1-nonanol] | 250 (≈ 1730 µM) | 500 (≈ 3470 µM) | 1000 (≈ 6930 µM) | 500 (≈ 3470 µM) | 500 (≈ 3470 µM) | 250 (≈ 1730 µM) | – | – | – | – | – | –
CCCCCCCCC(C)C=O (stereo not shown) [2-Methyl decanal] | 62.5 (≈ 367 µM) | 500 (≈ 2940 µM) | 500 (≈ 2940 µM) | 500 (≈ 2940 µM) | 250 (≈ 1470 µM) | 125 (≈ 734 µM) | – | – | – | – | – | –
CCCCCCCCCC(C)C=O (stereo not shown) [2-Methyl undecanal] | 62.5 (≈ 339 µM) | 125 (≈ 678 µM) | 250 (≈ 1360 µM) | 125 (≈ 678 µM) | 125 (≈ 678 µM) | 62.5 (≈ 339 µM) | – | – | – | – | – | –
CCCCCCCCC=CCC=O [3-Dodecenal] | 62.5 (≈ 343 µM) | 500 (≈ 2740 µM) | 1000 (≈ 5490 µM) | 250 (≈ 1370 µM) | 500 (≈ 2740 µM) | 31.3 (≈ 172 µM) | – | – | – | – | – | –
O=C1CCCC=CCCCCCCCCCC1 [5-cyclohexadecen-1-one] | 15.6 (≈ 66 µM) | > 1000 | > 1000 | > 1000 | > 1000 | 31.3 (≈ 132 µM) | – | – | – | – | – | –
C=CCCCCCCCCO [9-decen-1-ol] | 125 (≈ 800 µM) | 250 (≈ 1600 µM) | 1000 (≈ 6400 µM) | 250 (≈ 1600 µM) | 250 (≈ 1600 µM) | 62.5 (≈ 400 µM) | – | – | – | – | – | –
C=CCCCCCCCCCO [10-undecen-1-ol] | 31.3 (≈ 184 µM) | 125 (≈ 734 µM) | 250 (≈ 1470 µM) | 125 (≈ 734 µM) | 125 (≈ 734 µM) | 31.3 (≈ 184 µM) | – | – | – | – | – | –
CC1(C)CCC[C@]2(C)[C@H]3CCO[C@]3(C)CC[C@@H]12 [Ambroxan] | – | – | – | – | – | – | 31.3 | >1000 | >1000 | >1000 | >1000 | 31.3
CC1C(C)(C)C2=C(C(=O)CCC2)C1(C)C (stereo not shown) [Cashmerane] | – | – | – | – | – | – | 250 | 1000 | >1000 | >1000 | 1000 | 250
C=C(C)[C@@H]1CCC2=CC(=O)C[C@@H](C)[C@]2(C)C1 [Nootkatone] | 7.8 (≈ 35.7 µM) | 62.5 (≈ 286 µM) | 1000 (≈ 4580 µM) | 500 (≈ 2290 µM) | 62.5 (≈ 286 µM) | – | – | – | – | – | – | –
CCCCCCCC/C=C/C=O [Trans-2-undecenal] | – | 125 (≈ 743 µM) | 250 (≈ 1490 µM) | 1000 (≈ 5940 µM) | 125 (≈ 743 µM) | – | – | – | – | – | – | –
CCCCCCCCCCC=O [Undecanal] | 125 (≈ 734 µM) | 500 (≈ 2940 µM) | 1000 (≈ 5870 µM) | 500 (≈ 2940 µM) | 500 (≈ 2940 µM) | – | – | – | – | – | – | –

The remaining lines, values ahead:

MIC [1] [µg/mL] | MIC [2] [µg/mL] | MIC [3] [µg/mL] | MIC [4] [µg/mL] | MIC [5] [µg/mL] | MIC [6] [µg/mL] | MIC Pg-1 (paradentosis-related bacteria; head Fg-1 in Tables 2 and 3) [1] [ppm] | MIC Av-1 (caries-related bacteria) [2] [ppm] | MIC Su-1 (caries-related bacteria) [3] [ppm] | MIC Fn-1 (paradentosis-related bacteria) [4] [ppm] | MIC Aa-1 (caries-related bacteria) [5] [ppm] | MIC Pt-1 (paradentosis-related bacteria) [6] [ppm] | SMILES
250 (≈ 1090 µM) | 62.5 (≈ 271 µM) | 1000 (≈ 4340 µM) | 1000 (≈ 4340 µM) | 500 (≈ 2170 µM) | – | – | – | – | – | – | – | CC1CCC(C(C)C)C(OCC(O)CO)C1 (stereo not shown) [3-Menthoxypropane-1,2-diol]
– | – | – | – | – | – | 15.6 | 31.3 | 250 | 500 | 31.3 | – | CC(=O)C1=C(C)[C@@H]2C[C@@]3(C1)[C@H](C)CC[C@H]3C2(C)C [Acetyl cedrene]
– | – | – | – | – | – | 31.3 | 62.5 | 125 | 62.5 | 125 | – | CC/C(=C\CC1CC=C(C)C1(C)C)CO (stereo not shown) [Bacdanol]
– | – | – | – | – | – | 31.3 | 125 | 250 | 250 | 125 | 31.3 | CC1=CCC(CCC(C)CO)C1(C)C (stereo not shown) [Brahmanol]
125 (≈ 821 µM) | 500 (≈ 3280 µM) | 500 (≈ 3280 µM) | 500 (≈ 3280 µM) | 250 (≈ 1640 µM) | – | – | – | – | – | – | – | C=C(C)[C@@H]1CC=C(CO)CC1 [Perilla alcohol]
